# From BindingDB's records for doi:10.1007/pl00005326 (Schering-Plough Research Institute, 1999)
# Target: T1, Adenosine receptor A3 (Homo sapiens, UniProt P0DMS8)
# T1 sequence (P0DMS8 whole entry): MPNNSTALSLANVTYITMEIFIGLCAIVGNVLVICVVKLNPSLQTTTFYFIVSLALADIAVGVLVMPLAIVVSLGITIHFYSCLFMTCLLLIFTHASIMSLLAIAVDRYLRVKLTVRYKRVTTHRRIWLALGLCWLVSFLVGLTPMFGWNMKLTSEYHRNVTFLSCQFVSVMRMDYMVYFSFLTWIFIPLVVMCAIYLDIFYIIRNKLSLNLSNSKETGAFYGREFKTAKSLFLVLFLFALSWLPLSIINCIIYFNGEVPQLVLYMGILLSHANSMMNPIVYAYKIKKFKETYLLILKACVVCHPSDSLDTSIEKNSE
row,Ki [µM],Compound
1,> 10,Nc1nc2c(cnn2CCc2ccccc2)c2nc(-c3ccco3)nn12
2,> 10,Nc1nc(NCCc2ccc(O)cc2)nc2nc(-c3ccco3)nn12

row,Compound,Ki [µM]
1,Nc1nc2ccc(Cl)cc2c2nc(-c3ccco3)nn12,0.095
